# Biological target: C-Raf FL (full length CRAF with Y340E and Y341E activating mutations, co-expressed with h14-3-3 zeta) (Homo sapiens (Human), UniProt P04049, Y340E/Y341E)
# Assay: In vitro Raf activity determination, AlphaScreen p-MEK readout, c-Raf (C-Raf FL)
# Type: biochemical
# Conditions: c-Raf approximately 4 nM, ATP 1 μM, pre-incubation 60 minutes, reaction 1 hour
# How it was run: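 Full-length C-Raf (~4 nM) pre-incubated 60 min at room temperature with compound and kinase-dead biotinylated MEK1 (~10 nM) in Tris pH 7.5, 15 mM MgCl2, BSA, DTT. Reaction started with 1 μM ATP and run 1 h at room temperature. Phospho-MEK detected by AlphaScreen with anti-p-MEK antibody.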
# Chain of C-Raf FL (full length CRAF with Y340E and Y341E activating mutations, co-expressed with h14-3-3 zeta) (P04049 whole entry Y340E/Y341E): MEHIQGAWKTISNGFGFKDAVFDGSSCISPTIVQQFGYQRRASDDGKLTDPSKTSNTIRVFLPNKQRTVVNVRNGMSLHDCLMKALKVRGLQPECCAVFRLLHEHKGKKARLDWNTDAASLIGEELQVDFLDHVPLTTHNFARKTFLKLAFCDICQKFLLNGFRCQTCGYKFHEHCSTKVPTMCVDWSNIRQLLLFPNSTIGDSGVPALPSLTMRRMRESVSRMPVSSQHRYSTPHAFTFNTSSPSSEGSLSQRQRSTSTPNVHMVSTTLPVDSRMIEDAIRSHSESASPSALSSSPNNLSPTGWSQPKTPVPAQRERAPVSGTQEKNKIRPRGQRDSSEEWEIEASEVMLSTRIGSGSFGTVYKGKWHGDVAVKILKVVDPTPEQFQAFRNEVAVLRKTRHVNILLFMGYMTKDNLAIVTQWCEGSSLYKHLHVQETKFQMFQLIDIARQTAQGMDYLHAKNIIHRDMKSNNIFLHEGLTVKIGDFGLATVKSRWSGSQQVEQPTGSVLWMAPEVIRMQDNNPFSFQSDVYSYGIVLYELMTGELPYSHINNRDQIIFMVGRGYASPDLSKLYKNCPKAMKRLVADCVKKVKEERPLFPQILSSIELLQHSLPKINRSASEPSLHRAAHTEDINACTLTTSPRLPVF
# Chain of C-Raf FL (full length CRAF with Y340E and Y341E activating mutations, co-expressed with h14-3-3 zeta) (P63104 whole entry partner): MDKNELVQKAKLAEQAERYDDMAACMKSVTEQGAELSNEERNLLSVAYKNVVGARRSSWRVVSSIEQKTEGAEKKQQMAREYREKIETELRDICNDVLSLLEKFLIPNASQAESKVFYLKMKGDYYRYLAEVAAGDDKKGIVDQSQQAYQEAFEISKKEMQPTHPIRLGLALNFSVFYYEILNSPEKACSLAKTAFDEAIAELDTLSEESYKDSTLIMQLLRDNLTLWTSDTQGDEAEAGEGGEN
row,SMILES,IC50 [nM]
1,"Cc1ccc(NC(=O)c2ccnc(C(C)(C)C#N)c2)cc1-c1ccc2c(c1)N1CCOC[C@@H]1[C@](F)(CO)C2 [Example 401, 2-(2-cyanopropan-2-yl)-N-(3-((4aR,5S)-5-fluoro-5-(hydroxymethyl)-1,2,4,4a,5,6-hexahydro-[1,4]oxazino[4,3-a]quinolin-9-yl)-4-methylphenyl)isonicotinamide]",0.3
2,"Cc1ccc(NC(=O)c2cnnc(C(F)(F)F)c2)cc1-c1ccc2c(c1)N1CCOC[C@@H]1[C@](F)(CO)C2 [Example 403, N-(3-((4aR,5S)-5-fluoro-5-(hydroxymethyl)-1,2,4,4a,5,6-hexahydro-[1,4]oxazino[4,3-a]quinolin-9-yl)-4-methylphenyl)-6-(trifluoromethyl)pyridazine-4-carboxamide]",0.1
3,"Cc1ncc(NC(=O)c2cccc(C(F)(F)F)c2)cc1-c1ccc2c(c1)N1CCOC[C@@H]1[C@@](CO)(CF)C2 [Example 406, N-(5-((4aS,5S)-5-(fluoromethyl)-5-(hydroxymethyl)-1,2,4,4a,5,6-hexahydro-[1,4]oxazino[4,3-a]quinolin-9-yl)-6-methylpyridin-3-yl)-3-(trifluoromethyl)benzamide]",0.4
4,"Cc1ccc(NC(=O)c2ccnc(C(C)(F)F)c2)cc1-c1ccc2c(c1)N1CCOC[C@@H]1[C@@](CO)(CF)C2 [Example 407, 2-(1,1-difluoroethyl)-N-(3-((4aS,5S)-5-(fluoromethyl)-5-(hydroxymethyl)-1,2,4,4a,5,6-hexahydro-[1,4]oxazino[4,3-a]quinolin-9-yl)-4-methylphenyl)isonicotinamide]",0.1
5,"Cc1ccc(NC(=O)c2ccnc(C(F)(F)F)c2)cc1-c1ccc2c(c1)N1CCOC[C@H]1[C@](CO)(CF)C2 [Example 408, N-(3-((4aR,5R)-5-(fluoromethyl)-5-(hydroxymethyl)-1,2,4,4a,5,6-hexahydro-[1,4]oxazino[4,3-a]quinolin-9-yl)-4-methylphenyl)-2-(trifluoromethyl)isonicotinamide]",0.7
6,"Cc1ncc(NC(=O)c2cccc(C(F)(F)F)c2)cc1-c1ccc2c(c1)N1CCOC[C@H]1[C@](CO)(CF)C2 [Example 409, N-(5-((4aR,5R)-5-(fluoromethyl)-5-(hydroxymethyl)-1,2,4,4a,5,6-hexahydro-[1,4]oxazino[4,3-a]quinolin-9-yl)-6-methylpyridin-3-yl)-3-(trifluoromethyl)benzamide]",0.4
7,"Cc1ccc(NC(=O)c2ccnc(C(C)(F)F)c2)cc1-c1ccc2c(c1)N1CCOC[C@H]1[C@](CO)(CF)C2 [Example 410, 2-(1,1-difluoroethyl)-N-(3-((4aR,5R)-5-(fluoromethyl)-5-(hydroxymethyl)-1,2,4,4a,5,6-hexahydro-[1,4]oxazino[4,3-a]quinolin-9-yl)-4-methylphenyl)isonicotinamide]",0.5
8,"Cc1ccc(NC(=O)c2ccnc(C(C)(F)F)c2)cc1-c1cc2n(c(=O)c1)CC[C@H]1COCCN21 [Example 411, (S)-2-(1,1-difluoroethyl)-N-(4-methyl-3-(8-oxo-1,2,4,4a,5,6-hexahydro-8H-pyrido[2′,1′:2,3]pyrimido[6,1-c][1,4]oxazin-10-yl)phenyl)isonicotinamide]",0.2
9,"Cc1ccc(NC(=O)c2ccnc(C(C)(F)F)c2)cc1-c1cc2n(c(=O)c1)CC[C@@H]1COCCN21 [Example 413, (R)-2-(1,1-difluoroethyl)-N-(4-methyl-3-(8-oxo-1,2,4,4a,5,6-hexahydro-8H-pyrido[2′,1′:2,3]pyrimido[6,1-c][1,4]oxazin-10-yl)phenyl)isonicotinamide]",0.2
10,"Cc1ccc(NC(=O)c2ccnc(C(F)(F)F)c2F)cc1-c1cc2n(c(=O)c1)CC[C@@H]1COCCN21 [Example 415, (R)-3-fluoro-N-(4-methyl-3-(8-oxo-1,2,4,4a,5,6-hexahydro-8H-pyrido[2′,1′:2,3]pyrimido[6,1-c][1,4]oxazin-10-yl)phenyl)-2-(trifluoromethyl)isonicotinamide]",0.8
11,"Cc1ccc(NC(=O)c2ccnc(C(F)(F)F)c2F)cc1-c1cc2n(c(=O)c1)CC[C@H]1COCCN21 [Example 416, (S)-3-fluoro-N-(4-methyl-3-(8-oxo-1,2,4,4a,5,6-hexahydro-8H-pyrido[2′,1′:2,3]pyrimido[6,1-c][1,4]oxazin-10-yl)phenyl)-2-(trifluoromethyl)isonicotinamide]",0.4
12,"Cc1ccc(NC(=O)c2ccnc(C(C)(C)F)c2)cc1-c1cc2n(c(=O)c1)CC[C@H]1CCOCCN21 [Example 417, (S)-2-(2-fluoropropan-2-yl)-N-(4-methyl-3-(9-oxo-1,2,5,5a,6,7-hexahydro-4H,9H-pyrido[2′,1′:2,3]pyrimido[1,6-d][1,4]oxazepin-11-yl)phenyl)isonicotinamide]",0.5
13,Cc1ccc(NC(=O)c2ccnc(C(F)(F)F)c2)cc1-c1cc(F)c2c(c1)N1CCOC[C@H]1[C@](F)(CO)C2 [Example 419],0.5
14,"Cc1ccc(NC(=O)c2ccnc(C(C)(F)F)c2)cc1-c1cc(F)c2c(c1)N1CCOC[C@H]1[C@](F)(CO)C2 [Example 420, N-(3-((4aS,5S)-5,7-difluoro-5-(hydroxymethyl)-1,2,4,4a,5,6-hexahydro-[1,4]oxazino[4,3-a]quinolin-9-yl)-4-methylphenyl)-2-(1,1-difluoroethyl)isonicotinamide]",0.6
15,"Cc1ncc(NC(=O)c2cccc(C(F)(F)F)c2)cc1-c1cc(F)c2c(c1)N1CCOC[C@H]1[C@](F)(CO)C2 [Example 421, N-(5-((4aS,5S)-5,7-difluoro-5-(hydroxymethyl)-1,2,4,4a,5,6-hexahydro-[1,4]oxazino[4,3-a]quinolin-9-yl)-6-methylpyridin-3-yl)-3-(trifluoromethyl)benzamide]",0.8
16,"Cc1ccc(NC(=O)c2ccnc(C(C)(C)F)c2)cc1-c1cc(F)c2c(c1)N1CCOC[C@H]1[C@](F)(CO)C2 [Example 422, N-(3-((4aS,5S)-5,7-difluoro-5-(hydroxymethyl)-1,2,4,4a,5,6-hexahydro-[1,4]oxazino[4,3-a]quinolin-9-yl)-4-methylphenyl)-2-(2-fluoropropan-2-yl)isonicotinamide]",1
17,"Cc1ccc(NC(=O)c2cnnc(C(F)(F)F)c2)cc1-c1cc(F)c2c(c1)N1CCOC[C@H]1[C@](F)(CO)C2 [Example 423, N-(3-((4aS,5S)-5,7-difluoro-5-(hydroxymethyl)-1,2,4,4a,5,6-hexahydro-[1,4]oxazino[4,3-a]quinolin-9-yl)-4-methylphenyl)-6-(trifluoromethyl)pyridazine-4-carboxamide]",0.7
18,"Cc1ccc(NC(=O)c2ccnc(C(F)(F)F)c2)cc1-c1cc(F)c2c(c1)N1CCOC[C@@H]1[C@@](F)(CO)C2 [Example 424, N-(3-((4aR,5R)-5,7-difluoro-5-(hydroxymethyl)-1,2,4,4a,5,6-hexahydro-[1,4]oxazino[4,3-a]quinolin-9-yl)-4-methylphenyl)-2-(trifluoromethyl)isonicotinamide]",0.2
19,"Cc1ccc(NC(=O)c2ccnc(C(C)(F)F)c2)cc1-c1cc(F)c2c(c1)N1CCOC[C@@H]1[C@@](F)(CO)C2 [Example 425, N-(3-((4aR,5R)-5,7-difluoro-5-(hydroxymethyl)-1,2,4,4a,5,6-hexahydro-[1,4]oxazino[4,3-a]quinolin-9-yl)-4-methylphenyl)-2-(1,1-difluoroethyl)isonicotinamide]",0.4
20,"Cc1ncc(NC(=O)c2cccc(C(F)(F)F)c2)cc1-c1cc(F)c2c(c1)N1CCOC[C@@H]1[C@@](F)(CO)C2 [Example 426, N-(5-((4aR,5R)-5,7-difluoro-5-(hydroxymethyl)-1,2,4,4a,5,6-hexahydro-[1,4]oxazino[4,3-a]quinolin-9-yl)-6-methylpyridin-3-yl)-3-(trifluoromethyl)benzamide]",0.4
21,"Cc1ccc(NC(=O)c2ccnc(C(C)(C)F)c2)cc1-c1cc(F)c2c(c1)N1CCOC[C@@H]1[C@@](F)(CO)C2 [Example 427, N-(3-((4aR,5R)-5,7-difluoro-5-(hydroxymethyl)-1,2,4,4a,5,6-hexahydro-[1,4]oxazino[4,3-a]quinolin-9-yl)-4-methylphenyl)-2-(2-fluoropropan-2-yl)isonicotinamide]",0.6
22,"Cc1ccc(NC(=O)c2cnnc(C(F)(F)F)c2)cc1-c1cc(F)c2c(c1)N1CCOC[C@@H]1[C@@](F)(CO)C2 [Example 428, N-(3-((4aR,5R)-5,7-difluoro-5-(hydroxymethyl)-1,2,4,4a,5,6-hexahydro-[1,4]oxazino[4,3-a]quinolin-9-yl)-4-methylphenyl)-6-(trifluoromethyl)pyridazine-4-carboxamide]",0.1
23,"Cc1ccc(NC(=O)c2ccnc(C(F)(F)F)c2)cc1-c1cc(F)c2c(c1)N1CCOC[C@H]1[C@@](F)(CO)C2 [Example 429, N-(3-((4aS,5R)-5,7-difluoro-5-(hydroxymethyl)-1,2,4,4a,5,6-hexahydro-[1,4]oxazino[4,3-a]quinolin-9-yl)-4-methylphenyl)-2-(trifluoromethyl)isonicotinamide]",0.8
24,"Cc1ccc(NC(=O)c2ccnc(C(C)(F)F)c2)cc1-c1cc(F)c2c(c1)N1CCOC[C@H]1[C@@](F)(CO)C2 [Example 430, N-(3-((4aS,5R)-5,7-difluoro-5-(hydroxymethyl)-1,2,4,4a,5,6-hexahydro-[1,4]oxazino[4,3-a]quinolin-9-yl)-4-methylphenyl)-2-(1,1-difluoroethyl)isonicotinamide]",0.6
25,"Cc1ncc(NC(=O)c2cccc(C(F)(F)F)c2)cc1-c1cc(F)c2c(c1)N1CCOC[C@H]1[C@@](F)(CO)C2 [Example 431, N-(5-((4aS,5R)-5,7-difluoro-5-(hydroxymethyl)-1,2,4,4a,5,6-hexahydro-[1,4]oxazino[4,3-a]quinolin-9-yl)-6-methylpyridin-3-yl)-3-(trifluoromethyl)benzamide]",4.4
